Holding throughout (type): cell-based
The subject of series [1] is A. baumannii ATCC 15151. Briefly: ATP decrease (luciferase). Conditions: 1xMIC and 2xMIC; 25 minutes.
The test system of another series is red blood cells. Kind of series: Red blood cell lysis capacity. The protocol:
Diluted red blood cells were aliquoted into clear tissue culture media−/+addition of 40% human serum and added either 2 μL or 40 μL of cell lysis buffer (LB), 50 μM, 40 μM, 20 μM, 15 μM, 10 μM, or 5 μM Compound 14. The samples were agitated by vortex and spun by centrifuge.

Series [2] deals with A. baumannii ATCC 15151. Briefly: microbe, parasite or virus in culture. Particulars: for MIC: Acinetobacter baumannii; for Evolution of resistance?: Table 7. The protocol:
A. baumannii ATCC 15151 was grown from a glycerol stock by placing a small volume of cells onto a MHA plate. The MHA plate was incubated overnight at 37° C. A single colony was subsequently used to inoculate MHB to obtain a bacterial broth suspension. The MHB broth suspension was grown at 37° C. on a rotary shaking incubator (100 rpm) for 12 hours. The bacterial cell concentration was adjusted to ˜5×10^5 CFU/mL in MHB or MHB using OD at 595 nm. […] (PAO) and the negative control was non-treated cells. All treatments were performed in triplicate. The plate was incubated for 20 hours at 37° C. in a Tecan plate reader, where the cells were shaken every hour and an OD reading was taken at 600 nm. […] These cells were again plated in a 96-well plate and incubated as before. This was performed a total of 30 days.

The subject of series [3] is A. baumannii ATCC BAA-1797. Briefly: MIC on A. baumannii ATCC BAA-1797. Particulars: Acinetobacter baumannii. The method in brief:
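Cells adjusted to ~5×10^5 CFU/mL in MHB or MHB with 10%, 20% or 40% FBS, treated with two-fold serial compound dilutions in glass tubes and incubated 18 hours at 37° C. Growth read visually or by MTT (10% v/v, 10 min) with OD at 595 nm.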

The next series has as its system E. coli pNMT41. Kind of series: 6-chloro-4-methyl-umbelliferyl-β-D-glucuronide assay for beta-glucuronidase (inner membrane disruption). Particulars: 10 μg/mL PME. Here is the method:
E. coli pNMT 41 was grown from a glycerol stock by placing a small volume of cells onto a MHA plate. The MHA plate was incubated overnight at 37° C. A single colony was subsequently used to inoculate MHB+100 μg/mL ampicillin to obtain a bacterial broth suspension. The MHB broth suspension was grown at 37° C. on a rotary shaking incubator (100 rpm) for 12 hours. The bacterial cell concentration was adjusted to ˜1×10^7 CFU/mL in MHB using OD at 595 nm. The cells were washed 3× by spinning by centrifuge and washing with 500 μL medium 200. The cells were resuspended in 7 mL medium 200. The cells were treated with 10 μM melittin, 6, 12, 24, and 100 μM Compound 25, and 10 μg/mL PME. The cells were incubated at 37° C. for 30 minutes. 1 μM umbelliferyl was added, and the cells were incubated further for 10 minutes at 37° C.
The cells were then incubated at 37° C. for 45 minutes. 1 μM umbelliferyl was added, and the cells were incubated further for 10 minutes at 37° C.

The test system of series [4] is drug-resistant A. baumannii strains obtained from the CDC and Prevention Antimicrobial Isolate Bank. Kind of series: MIC on drug-resistant A. baumannii strains from the CDC Antimicrobial Isolate Bank. Conditions: Acinetobacter baumannii.
The next series deals with E. coli. Kind of series: Filamentation with ciprofloxacin and Compound 25 on E. coli. Particulars: for cell morphology and growth: 16 hours. The protocol: E. coli: E. coli was grown from a glycerol stock by placing a small volume of cells onto a MHA plate. The MHA plate was incubated overnight at 37° C. A single colony was subsequently used to inoculate MHB to obtain a bacterial broth suspension. The MHB broth suspension was grown at 37° C. on a rotary shaking incubator (100 rpm) for 12 hours. The bacterial cell concentration was adjusted to ˜1×10^7 CFU/mL in MHB using OD at 595 nm. […] The culture tubes were incubated for 16 hours at 37° C. After 16 hours incubation, took 3 μL of cells from each well and plated on microscope slide to observe the following: […]

For series [5], the system named is A. baumannii ATCC BAA-1797. Briefly: DNA degradation (agarose gel), drug-resistant strain. Particulars: drug-resistant ATCC BAA-1797; 10 μg/mL ciprofloxacin, 100 μM Compound 25; 5 hours.
The subject of series [6] is A. baumannii ATCC 15151. Briefly: DNA degradation (agarose gel), drug-sensitive strain. Conditions: 1.5% H2O2, 10 μg/mL ciprofloxacin, 100 μM Compound 25; 3 hours.
[7] abbreviates: ATCC15151, 0 h, read-out: Starting MIC Day 0, A. baumannii ATCC 15151, Day 0.
[8] abbreviates: ATCC15151, read-out: Final MIC Day 30, A. baumannii ATCC 15151, Day 30.
[9] abbreviates: ATCC 1797 / ATCC BAA-1797, 0% FBS, read-out: MIC (μM) in MDR A. baumannii ATCC 1797 0% FBS.
Where [10] appears, read: ATCC 1797 / ATCC BAA-1797, 10% FBS, read-out: MIC (μM) in MDR A. baumannii ATCC 1797 10% FBS.
Setting [11] is: ATCC 1797 / ATCC BAA-1797, read-out: MIC (μM) in MDR A. baumannii ATCC 1797 40% FBS, 40% FBS.
[12] abbreviates: ATCCBAA1797, 18 h, read-out: MIC in the presence of 40% FBS, A. baumannii ATCC BAA-1797, 40% FBS.
[13] abbreviates: ATCCBAA1797, Table 7, 10% FBS, read-out: MIC in 10% FBS.
Where [14] appears, read: ATCCBAA1797, Table 7, no serum stated, read-out: MIC.
Where [15] appears, read: ATCCBAA1797, read-out: MIC in 40% FBS (μM), Table 7, 40% FBS.
The mark [16] stands for this setting: 18 h, A. baumannii CDC AR033, 18 hours, read-out: MIC values for AR033.
Setting [17] is: ATCCBAA1797, A. baumannii ATCC BAA-1797, absence of serum, read-out: MIC in the absence of serum.
Setting [18] is: 18 h, A. baumannii CDC AR083, 18 hours, read-out: MIC values for AR083.
Setting [19] is: 20 μM Compound 25+25 ng/mL ciprofloxacin.

≈ marks a conversion by molar mass, not a printed value. Where two headings read alike, the source gives them in different places.

As to `Nc1cccc2[nH]cc(/C=N/Nc3ccc(Cl)cc3)c12` [Compound 14, (E)-3-((2-(4-chlorophenyl)hydrazineylidene)methyl)-1H-indol-4-amine], the ATP decrease result in the series on A. baumannii ATCC 15151 [1] is “caused a decrease in ATP”. The “red blood cell lysis” value in the series with red blood cells (40% additional human serum, 50 μM Compound 14) is given as “did not lyse cells”; in the series on red blood cells (no additional serum, 40 μM Compound 14), “lysed some red blood cells”. In addition, in the series on A. baumannii ATCC 15151 [2] (30 days), the “change of MIC from Day 0 to Day 30” value worked out at 8 fold. Also, in the series with A. baumannii ATCC 15151 [2] (30 days), the development of resistance result is “significant resistance”. Further, the MIC was 12.5 µM (≈ 3.56 µg/mL) in the series with A. baumannii ATCC 15151 [2] (setting [7]); no less than 100 µM in the series with A. baumannii ATCC 15151 [2] (setting [8]); 6 µM (≈ 1.71 µg/mL) in [3] (setting [9]); greater than 100 µM in series [3] (setting [10]); 50 µM (≈ 14.2 µg/mL) in series [3] (setting [11]); 50 µM in [3] (setting [12]). For the same compound, the MIC is greater than 100 µM in [3] (setting [13]); 6 µM (≈ 1.71 µg/mL) in series [3] (setting [14]); 50 µM (≈ 14.2 µg/mL) in series [3] (setting [15]); 12.5 µM (≈ 3.56 µg/mL) in series [3] (ATCCBAA1797, read-out: MIC in the absence of serum); greater than 100 µM in series [3] (ATCCBAA1797, read-out: MIC in the presence of 40% human serum, A. baumannii ATCC BAA-1797, 40% human serum); 25 µM (≈ 7.12 µg/mL) in [4] (setting [16]). Also, the MIC in series [4] (18 h, read-out: MIC values for AR083) was 12.5 µM (≈ 3.56 µg/mL). Also, in the series with A. baumannii ATCC 15151 [2], the “Evolution of resistance?” value was “Yes; >6-fold”. Further, the “inner membrane disruption (GUS fluorescence)” value in the series with E. coli pNMT41 (separate experiment, 12.5 μM Compound 14, 45 minutes) is reported as “did not disrupt inner membrane”.
As for `Clc1ccc(N/N=C/c2c[nH]c3ccc(Br)cc23)cc1` [Compound 15, (E)-5-bromo-3-((2-(4-chlorophenyl)hydrazineylidene)methyl)-1H-indole], in the series on A. baumannii ATCC 15151 [1], the ATP decrease result is “caused a decrease in ATP”. For the same compound, the “Evolution of resistance?” value with A. baumannii ATCC 15151 [2] is given as “Yes; >4-fold”. The MIC was 12.5 µM (≈ 4.36 µg/mL) in series [3] (setting [9]); greater than 100 µM in [3] (setting [10]); 50 µM (≈ 17.4 µg/mL) in series [3] (setting [11]); 100 µM in [3] (setting [12]); 6 µM (≈ 2.09 µg/mL) in [3] (setting [17]); greater than 100 µM in series [3] (setting [13]). The MIC was 12.5 µM (≈ 4.36 µg/mL) in series [3] (setting [14]), greater than 100 µM in [3] (setting [15]), 25 µM (≈ 8.72 µg/mL) in series [4] (setting [16]) and 12.5 µM (≈ 4.36 µg/mL) in [4] (setting [18]).
For the compound `Brc1ccc(N/N=C/c2c[nH]c3cccc(OCc4ccccc4)c23)cc1.Cl` [Compound 25, (E)-2-((4-(benzyloxy)-1H-indol-3-yl)methylene)-1-(4-bromophenyl)hydrazin-1-ium chloride], the ATP decrease result in the series with A. baumannii ATCC 15151 [1] is given as “caused a decrease in ATP”. In the series on E. coli (setting [19]), the “inhibition of ciprofloxacin-induced filamentation” value is recorded as “only slightly inhibited”. Besides, the “cell morphology and growth” value was “elongated in morphology and growth inhibition was observed” with E. coli (setting [19]); “morphologically normal and growth inhibition was observed” in the series with E. coli (single agent: 25 ng/mL ciprofloxacin or 20 μM Compound 25). For the same compound, the “ds DNA damage” value in series [5] is recorded as “Neither Ciprofloxacin Nor Compound 25 Caused ds DNA Damage”. Also, the development of resistance entry with A. baumannii ATCC 15151 [2] (30 days) is “had not developed resistance”. The MIC is 6 µM with A. baumannii ATCC 15151 [2] (setting [7]); 6 µM in the series with A. baumannii ATCC 15151 [2] (setting [8]); 6 µM in [3] (setting [9]); greater than 100 µM in [3] (setting [10]); 50 µM in series [3] (setting [11]); less than 50 µM in [3] (setting [12]). Moreover, the MIC is 6 µM in series [3] (setting [17]); greater than 100 µM in [3] (setting [13]); 6 µM in [3] (setting [14]); 50 µM in series [3] (setting [15]); 6 µM in [4] (setting [16]); less than 3 µM in series [4] (setting [18]). In addition, the MIC in series [4] (AR bank # 33, SAMN04014874, read-out: Compound 25 MIC) was 6 µM; in series [4] (AR bank # 35, SAMN04014876, read-out: Compound 25 MIC), 12.5 µM; in series [4] (AR bank # 36, SAMN04014877, read-out: Compound 25 MIC), 12.5 µM; in [4] (AR bank # 37, SAMN04014878, read-out: Compound 25 MIC) it was 6 µM; in series [4] (AR bank # 45, SAMN04014886, read-out: Compound 25 MIC), 6 µM; in [4] (AR bank # 52, SAMN04014893, read-out: Compound 25 MIC), 6 µM. Further, the MIC in series [4] (AR bank # 56, SAMN04014897, read-out: Compound 25 MIC) stood at 3 µM; in series [4] (AR bank # 63, SAMN04014904, read-out: Compound 25 MIC), 3 µM; in series [4] (AR bank # 70, SAMN04014911, read-out: Compound 25 MIC) it was 3 µM; in [4] (AR bank # 78, SAMN04014919, read-out: Compound 25 MIC), 6 µM; in series [4] (AR bank # 83, SAMN04014924, read-out: Compound 25 MIC), 3 µM; in series [4] (AR bank # 88, SAMN04014929, read-out: Compound 25 MIC), 6 µM. Besides, the MIC was determined as 6 µM in [4] (AR bank # 101, SAMN04014942, read-out: Compound 25 MIC) and 6 µM in [4] (AR bank # 102, SAMN04014943, read-out: Compound 25 MIC). Besides, the “Evolution of resistance?” value in the series on A. baumannii ATCC 15151 [2] was “No”. The DNA degradation result in the series on A. baumannii ATCC 15151 [6] is recorded as “did not degrade DNA”. In addition, the “inner membrane disruption (GUS fluorescence)” value in the series with E. coli pNMT41 (10 μM melittin, 6, 12, 24, 100 μM Compound 25, 30 minutes) is listed as “did not disrupt the inner membrane”.
Turning to `Cl.Fc1ccc(N/N=C/c2c[nH]c3cccc(OCc4ccccc4)c23)cc1` [Compound 27, (E)-2-((4-(benzyloxy)-1H-indol-3-yl)methylene)-1-(4-fluorophenyl)hydrazin-1-ium], the ATP decrease entry in the series with A. baumannii ATCC 15151 [1] is reported as “caused a decrease in ATP”. In the series with A. baumannii ATCC 15151 [2], the “Evolution of resistance?” value is recorded as “Yes; 4-fold”. For the same compound, the MIC in series [3] (setting [9]) was 12.5 µM; in [3] (setting [10]) it was greater than 100 µM; in [3] (setting [11]) it was 50 µM; in series [3] (setting [12]) it was 25 µM; in series [3] (setting [17]), 5 µM; in series [3] (setting [13]) it was greater than 100 µM. Moreover, the MIC in series [3] (setting [14]) is 12.5 µM; in [3] (setting [15]) it was 50 µM; in [4] (setting [16]), 25 µM; in [4] (setting [18]), 12.5 µM.

Values taken from patent publication US12655101B2, “Small molecules with antibacterial activity” (NEW MEXICO TECH UNIVERSITY RESEARCH PARK CORPORATION, priority 2021, dated 2026).
